From ChEMBL document CHEMBL1201862, “PubChem BioAssay data set” (2004) come the findings set out here.

Molecules are shown by their SMILES.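 Protocol summary: plate cells (96-well), add compound at 5 concentrations, incubate 48 h, interpolate endpoints linearly. The concentration for 50% growth inhibition is given as GI50.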 Calls of active or inactive are those of the source. No stated cut-off is given here; in the data, active = GI50 up to about 1.1 µM and inactive = higher. Where a SMILES comes first, the peptide text is derived from it. Square brackets hold non-standard residues; d marks the D form. Peptide text beside a SMILES is read from it.

Holding throughout (assay): DTP human tumour cell line panel, 48 h
The subject of test [1] is BT-549.
Test [2] concerns DU-145.
In test [3] the test system is MDA-MB-435.
Test [4] has as its system MDA-N.
For test [5], the system named is DMS-114.
In test [6] the test system is LXFL 529.
The subject of test [7] is SNB-78.

As usually defined, the GI50 is the concentration at which growth is held to half of that of the control. As to `O=Cc1cc([N+](=O)[O-])no1`, the GI50 in test [1] was > 100 µM (inactive); in test [2], 80.5 µM (inactive); in test [3] it was 15.2 µM (inactive); in test [4], 23.7 µM (inactive).

Turning to `CN(/N=N/c1[nH]cnc1C(N)=O)C1CCCCC1`, the GI50 in test [5], in test [6] and in test [7] was > 100 µM (inactive) throughout.

For `CC(C)C[C@H](NC(=O)[C@H](CC(C)C)NC(=O)[C@@H](Cc1c[nH]c2ccccc12)NC(=O)[C@H](Cc1ccccc1)NC(=O)[C@@H](Cc1c[nH]c2ccccc12)NC(=O)[C@H](CCC(N)=O)NC(=O)[C@@H](CCC(N)=O)NC(=O)[C@@H]1CCCN1C(=O)[C@@H](CCCCN)NC(=O)[C@H]1CCCN1C(=O)[C@H](N)CCCN=C(N)N)C(N)=O` (H-[dR][dP][dK]P[dQ]Q[dW]F[dW]LL-NH2), the GI50 in test [5] and in test [7] was > 100 µM (inactive) each time.

Consider `O=C1CCc2cc3c(cc21)CC1(Cc2cc4c(cc2C1)CCCC4)C3`, for which the GI50 in test [1] was > 100 µM (inactive); in test [2], > 100 µM (inactive); in test [3] it was 4.68 µM (inactive); in test [4] it was 4.82 µM (inactive).

Consider `CCOC(=O)C(Cc1cn(C(C)=O)c2ccccc12)P(=O)(OCC)OCC` (stereo not given), for which the GI50 was > 100 µM (inactive) in test [2], > 10 µM (inactive) in test [3] and > 100 µM (inactive) in test [4].

Take `Clc1ccc(/N=c2\oc3ccccc3cc2-c2nc3ccccc3[nH]2)c(Cl)c1`: the GI50 in test [1] is > 100 µM (inactive); in test [2], > 100 µM (inactive); in test [3], > 100 µM (inactive); in test [4], 83.6 µM (inactive).

As to `O=C(O)c1cc2c(ncc3c(=O)n(-c4ccccc4)[nH]c32)s1`, the GI50 in test [5] and in test [6] was > 100 µM (inactive) each time.

Take `O=C(CCN1CCOCC1)C(=Cc1ccccc1)C(=O)CCN1CCOCC1`: the GI50 in test [7] is 0.164 µM (active).

`CN(C)c1cccc(OC(=O)NCCCl)c1`: in test [5], the GI50 is > 100 µM (inactive).

As for `CC1NC(=O)CNC(=O)CNC(=O)C(Cc2ccc(O)cc2)NC(=O)C(C(C)C)NC(=O)C(C)NC1=O` (stereo not given) (cyclo(GGAAVY); configuration not given here), the GI50 in test [5] was > 100 µM (inactive).
